In experiment [1] the target is T1, CCK2R (Homo sapiens, UniProt P32239).
T1 sequence (P32239 1-447): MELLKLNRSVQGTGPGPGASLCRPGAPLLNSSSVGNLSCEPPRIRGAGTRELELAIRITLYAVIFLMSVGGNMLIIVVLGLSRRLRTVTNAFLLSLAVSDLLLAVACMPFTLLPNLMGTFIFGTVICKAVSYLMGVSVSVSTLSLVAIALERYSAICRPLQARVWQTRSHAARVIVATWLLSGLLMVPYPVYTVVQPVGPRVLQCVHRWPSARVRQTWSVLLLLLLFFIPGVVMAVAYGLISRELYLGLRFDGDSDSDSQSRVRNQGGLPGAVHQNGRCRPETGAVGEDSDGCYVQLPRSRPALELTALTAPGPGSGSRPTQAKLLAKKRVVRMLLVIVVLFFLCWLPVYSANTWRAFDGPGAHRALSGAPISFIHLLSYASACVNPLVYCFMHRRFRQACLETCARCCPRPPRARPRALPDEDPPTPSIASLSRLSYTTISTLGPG
Put plainly: In vitro binding of CCK2R-NIR compounds to HEK-CCK2R cells (cell bound fluorescence). Also noted: expressed in transfected cells; host or cells: HEK (human embryonic kidney) cells, HEK-CCK2R, gift from Dr. Mark Hellmich (UTMB). Particulars: for Kd: CCK2R-positive HEK-CCK2R cancer cells, 1 h at 37° C., read-out: KD; for affinity for CCK2R (in words): in vitro binding affinity data. The protocol: FIG. 4 depicts the binding affinities of CCK2R-NIR compounds 21, 42-44 to CCK2R. CCK2R-positive HEK-CCK2R cancer cells were incubated for 1 h at 37° C. with increasing concentrations of compounds. Media was then removed, washed with fresh media three times, and replaced with PBS. Cell bound fluorescence was assayed as using fluorometer.
CCK2R-positive HEK-CCK2R cancer cells were incubated for 1 h at 37° C. with increasing concentrations of compounds. Media was then removed, washed with fresh media three times, and replaced with PBS. Cell bound fluorescence was assayed as using fluorometer.
FIG. 13 illustrates the binding affinity of […] to CCK2R. CCK2R-positive HEK-CCK2R cancer cells were incubated for 1 h at 37° C. with increasing concentrations of compound 21. Media was then removed, washed with fresh media three times, and replaced with PBS. Cell bound fluorescence was assayed as using fluorometer.
HEK-CCK2 cells (a human embryonic kidney cells transfected with CCK2 receptor) were a kind gift from Dr. Mark Hellmich (University of Texas Medical Branch, Galveston, Tex.) and grown as a monolayer using Dulbecco's Modified Eagles Medium (GIBCO) (Gibco, NY) 10% heat-inactivated fetal bovine serum (Atlanta Biological, GA) and 1% penicillin streptomycin (Gibco, NY) in a 5% carbon dioxide: 95% air-humidified atmosphere at 37° C. for at least six passages before they were used for the assays.
HEK cells that overexpress CCK2 were seeded into a T75 flask and allowed to form a monolayer over 48 h. After trypsin digestion, release cells were transferred into centrifuge tubes (1×10^6 cells/tube) and centrifuged. The medium was replaced with fresh medium containing increasing concentration of requisite CCK2R-Ligand-NIR dye compound in the presence or absence of 100-fold excess the ligand, a high affinity CCK2 receptor antagonist, and incubated for 1 h at 37° C. After rinsing with fresh medium (2×1.0 mL) and PBS (1×1.0 mL), cells were resuspended in PBS (1.0 mL) and cell bound fluorescence was analyzed (100,000 cells/sample) using a fluorometer (Cary, Agilent). The relative binding affinities were calculated using a plot of % cell bound fluorescence versus the log concentration of the test article using GraphPad Prism 4.

Experiment [2] has as its target T1, CCK2R. To be noted: cited from earlier work.
In another experiment the target is T2, CCK1R (Homo sapiens, UniProt P32238).
T2 sequence (P32238 1-428): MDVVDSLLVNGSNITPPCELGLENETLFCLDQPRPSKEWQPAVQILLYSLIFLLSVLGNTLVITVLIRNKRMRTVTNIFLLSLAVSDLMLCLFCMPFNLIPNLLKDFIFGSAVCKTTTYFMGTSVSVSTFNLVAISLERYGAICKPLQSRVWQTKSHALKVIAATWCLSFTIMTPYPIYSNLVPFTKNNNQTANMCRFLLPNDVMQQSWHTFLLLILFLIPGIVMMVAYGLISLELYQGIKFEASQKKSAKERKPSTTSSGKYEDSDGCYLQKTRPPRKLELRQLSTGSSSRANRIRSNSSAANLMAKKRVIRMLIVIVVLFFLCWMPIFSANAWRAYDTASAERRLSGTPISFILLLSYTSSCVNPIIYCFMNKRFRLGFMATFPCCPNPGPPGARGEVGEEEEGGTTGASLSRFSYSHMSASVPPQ
To be noted: cited from earlier work.

Experiment [3] has as its system subcutaneous PANC-1 tumor. To be noted: oral Z-360 along with gemcitabine, cited from earlier work.

Structures are written as SMILES. Where two headings read alike, the source gives them in different places.

One may read the Kd as the constant that tells how readily two partners part at equilibrium. On to `CC(C)(C)C(=O)CN1C(=O)[C@H](NC(=O)Nc2cccc(C(=O)NCCCC(=O)N[C@@H](Cc3ccc(OC4=C(/C=C/C5=[N+](CCCCS(=O)(=O)[O-])c6ccc(S(=O)(=O)O)cc6C5(C)C)CCC/C4=C\C=C4\N(CCCCS(=O)(=O)O)c5ccc(S(=O)(=O)O)cc5C4(C)C)cc3)C(=O)O)c2)CN(C2CCCCC2)c2ccccc21` [Compound 48], for which, on CCK2R [1] (HEK-CCK2R cells), the “affinity for CCK2R compared to compound 21” value is listed as “less affinity” and the “affinity for CCK2R (in words)” value was “very high affinity”. Also, at CCK2R [1] (Table 2), the dissociation constant (Kd) came to 0.9 nM. On to `CC(C)(C)C(=O)CN1C(=O)[C@H](NC(=O)Nc2cccc(C(=O)N[C@@H](CCC(=O)N[C@@H](Cc3ccc(OC4=C(/C=C/C5=[N+](CCCCS(=O)(=O)[O-])c6ccc(S(=O)(=O)O)cc6C5(C)C)CCC/C4=C\C=C4\N(CCCCS(=O)(=O)O)c5ccc(S(=O)(=O)O)cc5C4(C)C)cc3)C(=O)O)C(=O)O)c2)CN(C2CCCCC2)c2ccccc21` [Compound 45], for which the Kd at CCK2R [1] (Table 2) is 2.3 nM. With `CC(C)(C)C(=O)CN1C(=O)[C@@H](NC(=O)Nc2cccc(C(=O)N[C@H](CCC(=O)N[C@@H](Cc3ccc(OC4=C(/C=C/C5=[N+](CCCCS(=O)(=O)[O-])c6ccc(S(=O)(=O)O)cc6C5(C)C)CCC/C4=C\C=C4\N(CCCCS(=O)(=O)O)c5ccc(S(=O)(=O)O)cc5C4(C)C)cc3)C(=O)O)C(=O)O)c2)CN(C2CCCCC2)c2ccccc21` [Compound 47], the Kd on CCK2R [1] (Table 2) stood at 14.7 nM. On CCK2R [1] (HEK-CCK2R cells), the “affinity for CCK2R (in words)” value is recorded as “relatively weak affinity”. One may read the Ki as the equilibrium dissociation constant of an inhibitor or competing ligand from its target. Turning to `CC(C)(C)C(=O)CN1C(=O)[C@H](NC(=O)Nc2cccc(C(=O)O)c2)CN(C2CCCCC2)c2ccccc21` [Compound Z-360], on CCK2R [2], the Ki is 0.47 nM. On CCK1R, the “selectivity ratio over CCK1R” value is given as 672. In addition, the “inhibition of subcutaneous PANC-1 tumor growth” value in experiment [3] (compared with either agent alone) was 27.1%. Moreover, in experiment [3], the “survival compared with the vehicle” value is given as “significantly increased survival”.

On to `CC(C)(C)C(=O)CN1C(=O)[C@H](NC(=O)Nc2cccc(C(=O)N[C@H](CCC(=O)N[C@@H](CCCNC(=N)N)C(=O)N[C@@H](Cc3ccc(OC4=C(/C=C/C5=[N+](CCCCS(=O)(=O)[O-])c6ccc(S(=O)(=O)O)cc6C5(C)C)CCC/C4=C\C=C4\N(CCCCS(=O)(=O)O)c5ccc(S(=O)(=O)O)cc5C4(C)C)cc3)C(=O)O)C(=O)O)c2)CN(C2CCCCC2)c2ccccc21` [Compound 42], for which the Kd on CCK2R [1] (Table 1) came out at 1.74 nM. The “affinity for CCK2R (in words)” value at CCK2R [1] (HEK-CCK2R cells) is on record as “relatively weaker affinity”. Take `CC(C)(C)C(=O)CN1C(=O)[C@H](NC(=O)Nc2cccc(C(=O)NCCCC(=O)N[C@H](Cc3ccc(OC4=C(/C=C/C5=[N+](CCCCS(=O)(=O)[O-])c6ccc(S(=O)(=O)O)cc6C5(C)C)CCC/C4=C\C=C4\N(CCCCS(=O)(=O)O)c5ccc(S(=O)(=O)O)cc5C4(C)C)cc3)C(=O)O)c2)CN(C2CCCCC2)c2ccccc21` [Compound 49]: on CCK2R [1] (Table 2), the Kd turned out to be 13.9 nM. With `CC(C)(C)C(=O)CN1C(=O)[C@@H](NC(=O)Nc2cccc(C(=O)N[C@H](CCC(=O)O)C(=O)N[C@H](Cc3ccc(OC4=C(/C=C/C5=[N+](CCCCS(=O)(=O)[O-])c6ccc(S(=O)(=O)O)cc6C5(C)C)CCC/C4=C\C=C4\N(CCCCS(=O)(=O)O)c5ccc(S(=O)(=O)O)cc5C4(C)C)cc3)C(=O)O)c2)CN(C2CCCCC2)c2ccccc21` [Compound 43], on CCK2R [1] (HEK-CCK2R cells), the “affinity for CCK2R (in words)” value is listed as “very high affinity”. Consider `CC(C)(C)C(=O)CN1C(=O)[C@@H](NC(=O)Nc2cccc(C(=O)N[C@@H](CCC(=O)N[C@H](CCCNC(=N)N)C(=O)N[C@H](CC(=O)O)C(=O)N[C@H](Cc3ccc(OC4=C(/C=C/C5=[N+](CCCCS(=O)(=O)[O-])c6ccc(S(=O)(=O)O)cc6C5(C)C)CCC/C4=C\C=C4\N(CCCCS(=O)(=O)O)c5ccc(S(=O)(=O)O)cc5C4(C)C)cc3)C(=O)O)C(=O)O)c2)CN(C2CCCCC2)c2ccccc21` [Compound 44], for which the “affinity for CCK2R (in words)” value at CCK2R [1] (HEK-CCK2R cells) is recorded as “relatively weaker affinity”.

These data come from US10786580B2, “Cholecystokinin 2 receptor targeted NIR imaging and use thereof” (On Target Laboratories, LLC, priority 2016, dated 2020).
